Experimental data published in patent US20100179225A1, “POI Prevention” (CYTOKINE PHARMASCIENCES, INC., priority 2008, published 2010).

Assays:
[1] = test system: apoptotic cells in graft muscularis; experiment: Apoptosis within smooth muscle layer of grafts (TUNEL); type: in vivo, Lewis rats; settings: 1 mg/kg
Method: Syngeneic orthotopic small intestinal transplantation was performed in Lewis rats as previously described (Schwarz N T, Nakao A, Nalesnik M A, Kalff J C, Murase N, Bauer A J. Protective effects of ex vivo graft radiation and tacrolimus on syngeneic transplanted rat small bowel motility. Surgery 2002; 131: 413-423). […] Then the graft vascular bed was perfused with chilled UW solution (University of Wisconcin) and the intestinal lumen was irrigated with 50 ml cold 0.9% NaCl solution containing […]. neomycin sulfate (Uro Nebacetin N, Nycomed, Germany). The graft was stored in cold UW solution during the preparation of the recipient. An end-to-side anastomosis between the graft aorta and the recipient infra-renal aorta, and between the graft vein and recipient vena cava, was performed. Approximately 80% of the recipient intestine was removed and enteric continuity was restored by proximal and distal end-to-end intestinal anastomoses. […]
Apoptotic cells within the smooth muscle layer of the grafts were detected 3 and 18 h after reperfusion by detection of DNA double strand breaks with a commercially available TUNEL kit (Roche, Mannheim, Germany) according to the manufactures instructions.

swine = experiment: Gastrointestinal transit in swine (radio-opaque globes, geometric center) after IM; type: in vivo; settings: 24 h after operation, mean+/−SEM
Method: Swine were fed with CPSI 2364 or placebo 14 hours and three hours before operation. In the iv group, CPSI 2364 was applied once two hours before operation. All animals were fed (non fasted). After premedication animals were intubated and a central venous catheter was applied. A laparotomy was performed under sterile conditions. The whole small bowel was eventrated and manipulated twice from duodenum to cecum between two fingers. In the sham group, a laparotomy was performed without intestinal manipulation. At the end of the operation, 15 radio-opaque globes were placed in the proximal small bowel. The abdominal wall was closed and swine were brought to an intensive care unit.
Swine underwent intestinal manipulation (IM) or laparotomy without IM (Sham). CPSI-2364 (1 mg/kg) or placebo (mannitol 2.5%) were administered orally (p.o.) twice at 14 hours and 3 hours before operation or intravenously (i.v.) once at 2 hours before operation. At the end of the operation, 15 radio-opaque globes were placed in the proximal small bowel. Twenty-four hours after operation animals were sacrificed and the radio-opaque globes were detected by x-rays radiography and the distribution along the gastrointestinal tract was calculated as the geometric center **p<0.001 vs. indicated probes by 1-way ANOVA followed by Bonferroni's post test. […]

IL-6 mRNA = experiment: Proinflammatory gene expression in ME, real-time RT-PCR: IL-6; type: in vivo, mice; settings: 5 mg/kg i.v. preoperative; 6 hours after IM; vs placebo IM
Excerpt: The small bowel of the animals was subjected to a standardized, surgical manipulation (IM) as described previously (Kalff J C, Schraut W H, Simmons R L et al. Surgical manipulation of the gut elicits an intestinal muscularis inflammatory response resulting in postsurgical ileus. Ann Surg 1998; 228:652-663; Wehner S, Schwarz N T, Hundsdoerfer R et al. Induction of IL-6 within the rodent intestinal muscularis after intestinal surgical stress. Surgery 2005; 137:436-446). In brief, after anesthesia a midline abdominal incision was made into the peritoneal cavity. […]
Proinflammatory gene expression was analyzed in placebo and CNI-1493 (5 mg/kg) treated animals at 1, 3, 6 and 24 hours after operation; n=5-7 each group. […] Total RNA was analyzed in ME specimen that was prepared as described before (Wehner S, Behrendt F F, Lyutenski B N et al. Inhibition of macrophage function prevents intestinal inflammation and postoperative ileus in rodents. Gut 2007; 56:176-185). […] Expression of mRNA was quantified in triplicate by a RT-PCR with gene expression assays for […] (MCP-1; #Mm00441242_m1), CCL3 (MIP-1α #Mm00441258_m1), IL-6 (Assay ID #Mm00446190_ml), TNF-α (#Mm00443258_m1) and ICAM-1 (#Mm00516023_m1). […] Data quantification was performed by the ΔΔCT method. […]

SMILES | number of apoptotic bodies in muscularis ([1]; 3 h after reperfusion) | number of apoptotic bodies in muscularis ([1]; 18 h after reperfusion) | gastrointestinal transit, geometric center (GC) (swine; 1 mg/kg i.v. once at 2 hours before operation) | gastrointestinal transit, geometric center (GC) (swine; 1 mg/kg p.o. twice at 14 hours and 3 hours before operation) | IL-6 expression diminished (IL-6 mRNA)
C/C(=N\N=C(N)N)c1cc(NC(=O)CCCCCCCCC(=O)Nc2cc(/C(C)=N/N=C(N)N)cc(/C(C)=N/N=C(N)N)c2)cc(/C(C)=N/N=C(N)N)c1.CS(=O)(=O)O.CS(=O)(=O)O.CS(=O)(=O)O.CS(=O)(=O)O [CPSI-2364] | 21.0 | 7.2 | 14.01+/−0.44 | 13.00+/−0.27 | –
C/C(=N\N=C(N)N)c1cc(NC(=O)CCCCCCCCC(=O)Nc2cc(/C(C)=N/N=C(N)N)cc(/C(C)=N/N=C(N)N)c2)cc(/C(C)=N/N=C(N)N)c1.Cl.Cl.Cl.Cl [CNI-1493] | – | – | – | – | more than 55%
